Where two headings read alike, the source gives them in different places.
Key:
Assay type in all cases: biochemical
PI3Kβ = target: T1, PI3Kβ (Homo sapiens, UniProt P42338); assay: TR-FRET enzymatic activity assay, PI3Kβ
T1 construct: made in house

PI3Kδ = target: T2, PI3Kδ (Homo sapiens, UniProt O00329); assay: TR-FRET enzymatic activity assay, PI3Kδ
T2 construct: made in house

PI3Kγ = target: T3, PI3Kγ (Homo sapiens, UniProt P48736); assay: TR-FRET enzymatic activity assay, PI3Kγ; details: read-out: PI3Kγ IC50
T3 construct: made in house
T3 sequence (P48736 whole entry): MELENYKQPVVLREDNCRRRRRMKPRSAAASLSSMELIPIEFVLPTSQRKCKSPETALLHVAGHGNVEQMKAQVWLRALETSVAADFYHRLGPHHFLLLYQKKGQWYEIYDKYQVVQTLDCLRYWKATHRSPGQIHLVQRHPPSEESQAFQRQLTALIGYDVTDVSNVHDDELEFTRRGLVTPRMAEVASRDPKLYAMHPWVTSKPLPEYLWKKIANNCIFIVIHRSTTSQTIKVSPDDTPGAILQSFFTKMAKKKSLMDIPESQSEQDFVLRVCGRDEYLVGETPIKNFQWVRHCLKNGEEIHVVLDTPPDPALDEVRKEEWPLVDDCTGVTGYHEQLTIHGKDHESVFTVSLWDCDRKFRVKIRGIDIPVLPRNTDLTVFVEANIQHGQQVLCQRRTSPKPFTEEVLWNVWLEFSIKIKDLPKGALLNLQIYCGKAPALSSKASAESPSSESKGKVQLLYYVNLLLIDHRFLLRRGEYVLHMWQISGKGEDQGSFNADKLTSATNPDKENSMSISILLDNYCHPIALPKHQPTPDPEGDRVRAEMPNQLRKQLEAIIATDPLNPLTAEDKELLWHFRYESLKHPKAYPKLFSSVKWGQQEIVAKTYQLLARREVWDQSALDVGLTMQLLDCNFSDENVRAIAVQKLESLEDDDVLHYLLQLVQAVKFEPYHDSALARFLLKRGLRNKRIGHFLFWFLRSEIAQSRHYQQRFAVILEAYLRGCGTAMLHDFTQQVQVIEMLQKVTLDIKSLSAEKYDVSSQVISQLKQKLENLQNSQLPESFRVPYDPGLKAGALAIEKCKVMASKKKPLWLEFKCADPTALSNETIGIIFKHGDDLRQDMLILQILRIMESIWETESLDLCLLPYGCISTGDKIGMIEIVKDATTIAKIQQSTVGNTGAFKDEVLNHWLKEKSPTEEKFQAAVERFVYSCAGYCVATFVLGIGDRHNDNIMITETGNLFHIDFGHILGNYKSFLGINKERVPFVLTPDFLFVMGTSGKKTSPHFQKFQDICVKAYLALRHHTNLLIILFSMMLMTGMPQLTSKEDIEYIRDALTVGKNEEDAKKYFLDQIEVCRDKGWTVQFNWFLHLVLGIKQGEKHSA
Procedure, shortened: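 Activity measured by time-resolved FRET; each isoform tested in its own enzymatic reaction.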

[1] = Table 2, TR-FRET, 2x Km ATP, 30 minutes at 25° C.

T1 sequence (P42338 whole entry): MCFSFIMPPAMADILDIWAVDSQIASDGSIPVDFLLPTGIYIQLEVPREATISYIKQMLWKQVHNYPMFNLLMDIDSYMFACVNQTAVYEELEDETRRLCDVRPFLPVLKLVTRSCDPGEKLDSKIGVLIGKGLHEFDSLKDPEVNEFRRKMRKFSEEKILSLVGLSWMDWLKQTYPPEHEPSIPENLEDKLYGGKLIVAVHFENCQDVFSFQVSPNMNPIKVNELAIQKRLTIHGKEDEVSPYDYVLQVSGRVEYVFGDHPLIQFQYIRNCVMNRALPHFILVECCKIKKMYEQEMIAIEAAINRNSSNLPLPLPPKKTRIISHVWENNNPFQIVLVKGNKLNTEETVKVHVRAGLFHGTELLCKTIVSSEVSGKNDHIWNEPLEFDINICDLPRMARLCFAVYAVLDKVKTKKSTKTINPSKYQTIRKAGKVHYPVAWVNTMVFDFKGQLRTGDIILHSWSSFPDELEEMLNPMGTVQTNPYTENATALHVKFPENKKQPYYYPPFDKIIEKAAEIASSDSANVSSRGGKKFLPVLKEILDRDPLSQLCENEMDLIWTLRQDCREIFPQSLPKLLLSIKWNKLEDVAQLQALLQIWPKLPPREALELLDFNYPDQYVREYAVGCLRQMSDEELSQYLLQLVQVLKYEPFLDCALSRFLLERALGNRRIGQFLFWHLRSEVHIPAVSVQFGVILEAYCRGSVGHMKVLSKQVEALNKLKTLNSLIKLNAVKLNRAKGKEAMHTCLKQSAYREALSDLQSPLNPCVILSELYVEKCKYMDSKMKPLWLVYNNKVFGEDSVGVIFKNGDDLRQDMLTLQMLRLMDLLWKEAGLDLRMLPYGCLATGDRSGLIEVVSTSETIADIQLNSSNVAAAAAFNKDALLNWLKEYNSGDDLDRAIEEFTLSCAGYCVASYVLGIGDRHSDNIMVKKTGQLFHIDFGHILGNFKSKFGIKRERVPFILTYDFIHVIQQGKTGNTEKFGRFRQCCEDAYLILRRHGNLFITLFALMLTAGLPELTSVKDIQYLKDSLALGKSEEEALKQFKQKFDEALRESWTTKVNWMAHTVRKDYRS
T1 sequence (P27986 whole entry partner): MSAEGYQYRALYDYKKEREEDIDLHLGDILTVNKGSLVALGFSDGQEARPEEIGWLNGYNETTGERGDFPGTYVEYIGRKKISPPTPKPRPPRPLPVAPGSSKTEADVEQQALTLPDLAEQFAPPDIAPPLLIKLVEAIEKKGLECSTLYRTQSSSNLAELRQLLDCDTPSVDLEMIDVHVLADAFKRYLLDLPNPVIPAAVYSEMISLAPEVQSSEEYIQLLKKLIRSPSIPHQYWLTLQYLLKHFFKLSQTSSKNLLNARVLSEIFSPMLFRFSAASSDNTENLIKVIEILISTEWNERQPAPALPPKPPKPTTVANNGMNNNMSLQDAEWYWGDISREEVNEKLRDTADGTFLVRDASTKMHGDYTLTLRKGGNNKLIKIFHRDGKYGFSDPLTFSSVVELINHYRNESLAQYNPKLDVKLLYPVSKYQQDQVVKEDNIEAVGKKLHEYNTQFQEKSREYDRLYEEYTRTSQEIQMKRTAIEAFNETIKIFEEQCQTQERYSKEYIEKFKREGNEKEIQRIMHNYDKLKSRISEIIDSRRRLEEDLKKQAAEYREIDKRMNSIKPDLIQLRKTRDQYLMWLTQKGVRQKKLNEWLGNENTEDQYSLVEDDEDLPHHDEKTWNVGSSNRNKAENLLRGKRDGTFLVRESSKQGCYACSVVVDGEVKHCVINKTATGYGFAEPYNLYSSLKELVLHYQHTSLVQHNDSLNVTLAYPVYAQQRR
T2 sequence (O00329 whole entry): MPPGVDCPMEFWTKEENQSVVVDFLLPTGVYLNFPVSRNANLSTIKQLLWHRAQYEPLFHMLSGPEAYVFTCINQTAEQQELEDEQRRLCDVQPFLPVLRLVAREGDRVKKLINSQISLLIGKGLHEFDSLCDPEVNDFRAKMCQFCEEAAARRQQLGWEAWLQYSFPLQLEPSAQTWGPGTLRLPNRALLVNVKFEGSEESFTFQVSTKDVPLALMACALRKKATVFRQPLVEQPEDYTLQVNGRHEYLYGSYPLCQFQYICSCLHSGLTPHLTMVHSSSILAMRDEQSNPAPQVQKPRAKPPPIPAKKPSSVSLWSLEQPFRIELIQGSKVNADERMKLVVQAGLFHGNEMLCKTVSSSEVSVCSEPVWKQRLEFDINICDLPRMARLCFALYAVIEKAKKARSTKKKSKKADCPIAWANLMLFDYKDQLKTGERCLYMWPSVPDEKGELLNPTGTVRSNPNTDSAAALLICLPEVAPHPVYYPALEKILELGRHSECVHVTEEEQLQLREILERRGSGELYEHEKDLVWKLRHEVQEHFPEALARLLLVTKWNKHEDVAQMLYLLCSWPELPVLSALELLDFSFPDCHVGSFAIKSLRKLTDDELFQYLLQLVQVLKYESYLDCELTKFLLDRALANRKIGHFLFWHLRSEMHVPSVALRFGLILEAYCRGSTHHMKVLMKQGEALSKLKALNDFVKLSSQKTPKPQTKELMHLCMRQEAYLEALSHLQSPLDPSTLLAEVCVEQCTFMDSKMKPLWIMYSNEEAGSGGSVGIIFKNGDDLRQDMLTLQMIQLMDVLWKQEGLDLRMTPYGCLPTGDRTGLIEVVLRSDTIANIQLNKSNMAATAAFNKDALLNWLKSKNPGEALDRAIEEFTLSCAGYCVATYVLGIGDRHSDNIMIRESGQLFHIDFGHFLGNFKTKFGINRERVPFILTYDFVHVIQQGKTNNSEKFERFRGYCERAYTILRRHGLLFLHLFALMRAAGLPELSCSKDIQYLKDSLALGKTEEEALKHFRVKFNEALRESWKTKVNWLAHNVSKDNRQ
T2 sequence (P27986 whole entry partner): as the sequence (P27986 whole entry partner) above

| Compound | IC50 (PI3Kβ; [1]) [nM] | IC50 (PI3Kδ; [1]) [nM] | IC50 (PI3Kγ; [1]) [nM] | IC50 (PI3Kγ) [nM] | IC50 (PI3Kβ; Table 2a, same assay) [nM] | IC50 (PI3Kδ; Table 2a, same assay) [nM] | IC50 (PI3Kγ; Table 2a, same assay) [nM] |
| --- | --- | --- | --- | --- | --- | --- | --- |
| Cc1nc(N)nc(N[C@@H](c2ccccc2)c2nc3cccc(Cl)c3c(=O)n2-c2cc[nH]n2)c1C#N [Compound 110, (S)-2-amino-4-(((5-chloro-4-oxo-3-(1H-pyrazol-3-yl)-3,4-dihydroquinazolin-2-yl)(phenyl)methyl)amino)-6-methylpyrimidine-5-carbonitrile] | 4 | 1 | 410 | – | – | – | – |
| Nc1nc(N)c(Cl)c(N[C@H](c2nc3ccc(F)cc3c(=O)n2-c2cc[nH]n2)C2CC2)n1 [Compound 114, (S)-2-(cyclopropyl((2,6-diamino-5-chloropyrimidin-4-yl)amino)methyl)-6-fluoro-3-(1H-pyrazol-3-yl)quinazolin-4(3h)-one] | 110 | 23 | – | > 10000 | – | – | – |
| C[C@H](Nc1nc(N)nc(N)c1C#N)c1nc2ccc(F)cc2c(=O)n1-c1cc[nH]n1 [Compound 115, (S)-2,4-diamino-6-((1-(6-fluoro-4-oxo-3-(1H-pyrazol-3-yl)-3,4-dihydroquinazolin-2-yl)ethyl)amino)pyrimidine-5-carbonitrile] | 2 | 1 | 560 | – | – | – | – |
| CC[C@H](Nc1nc(N)nc(N)c1Cl)c1nc2ccc(F)cc2c(=O)n1-c1cc[nH]n1 [Compound 116, (S)-2-(1-((2,6-diamino-5-chloropyrimidin-4-yl)amino)propyl)-6-fluoro-3-(1H-pyrazol-3-yl)quinazolin-4(3h)-one] | 210 | 44 | – | > 10000 | – | – | – |
| C[C@H](NC(=O)c1c(N)nn2cccnc12)c1nc2cccc(Cl)c2c(=O)n1-c1cc[nH]n1 [Compound 117, (S)-2-amino-N-(1-(5-chloro-4-oxo-3-(1H-pyrazol-3-yl)-3,4-dihydroquinazolin-2-yl)ethyl)pyrazolo[1,5-a]pyrimidine-3-carboxamide] | 37 | 110 | 160 | – | – | – | – |
| CC[C@H](NC(=O)c1cnn2cccnc12)c1nc2c(Cl)ccc(Cl)c2c(=O)n1-c1cn[nH]c1 [Compound 119, (S)—N-(1-(5,8-dichloro-4-oxo-3-(1H-pyrazol-4-yl)-3,4-dihydroquinazolin-2-yl)propyl)pyrazolo[1,5-a]pyrimidine-3-carboxamide] | 360 | 170 | 7200 | – | – | – | – |
| CC[C@H](NC(=O)c1cnn2cccnc12)c1nc2c(Cl)ccc(Cl)c2c(=O)n1-c1cc[nH]n1 [Compound 120, (S)—N-(1-(5,8-dichloro-4-oxo-3-(1H-pyrazol-3-yl)-3,4-dihydroquinazolin-2-yl)propyl)pyrazolo[1,5-a]pyrimidine-3-carboxamide] | 530 | 720 | – | > 10000 | – | – | – |
| C[C@H](NC(=O)c1nccnc1N)c1nc2cccc(Cl)c2c(=O)n1-c1cc[nH]n1 [Compound 121, (S)-3-amino-N-(1-(5-chloro-4-oxo-3-(1H-pyrazol-3-yl)-3,4-dihydroquinazolin-2-yl)ethyl)pyrazine-2-carboxamide] | 79 | 20 | 890 | – | – | – | – |
| CC[C@H](NC(=O)c1nccnc1N)c1nc2c(Cl)ccc(Cl)c2c(=O)n1-c1cn[nH]c1 [Compound 122, (S)-3-amino-N-(1-(5,8-dichloro-4-oxo-3-(1H-pyrazol-4-yl)-3,4-dihydroquinazolin-2-yl)propyl)pyrazine-2-carboxamide] | 640 | 200 | – | > 10000 | – | – | – |
| CCC[C@H](Nc1nc(N)nc(N)c1Cl)c1nc2cccc(Cl)c2c(=O)n1-c1cc[nH]n1 [Compound 124, (S)-5-chloro-2-(1-((2,6-diamino-5-chloropyrimidin-4-yl)amino)butyl)-3-(1H-pyrazol-3-yl)quinazolin-4(3h)-one] | 14 | 12 | 6700 | – | – | – | – |
| C[C@H](Nc1nc(N)nc(N)c1Cl)c1nc2cccc(C(F)F)c2c(=O)n1-c1cc[nH]n1 [Compound 126, (S)-2-(1-((2,6-diamino-5-chloropyrimidin-4-yl)amino)ethyl)-5-(difluoromethyl)-3-(1H-pyrazol-3-yl)quinazolin-4(3H)-one] | 5 | 3 | 2800 | – | – | – | – |
| N#Cc1c(N)nc(N)nc1N[C@H](c1nc2cccc(Cl)c2c(=O)n1-c1cc[nH]n1)C1CCC1 [Compound 128, (S)-2,4-diamino-6-(((5-chloro-4-oxo-3-(1H-pyrazol-3-yl)-3,4-dihydroquinazolin-2-yl)(cyclobutyl)methyl)amino)pyrimidine-5-carbonitrile] | – | – | – | – | 2 | 2 | 2000 |
| Nc1nc(N)c(Cl)c(N[C@H](c2nc3c(Cl)cc(F)cc3c(=O)n2-c2cc[nH]n2)C2CCC2)n1 [Compound 129, (S)-8-chloro-2-(cyclobutyl((2,6-diamino-5-chloropyrimidin-4-yl)amino)methyl)-6-fluoro-3-(1H-pyrazol-3-yl)quinazolin-4(3H)-one] | – | – | – | – | 270 | 86 | > 10000 |
| N#Cc1c(N)nc(N)nc1N[C@H](c1nc2c(Cl)cc(F)cc2c(=O)n1-c1cc[nH]n1)C1CCC1 [Compound 130, (S)-2,4-diamino-6-(((8-chloro-6-fluoro-4-oxo-3-(1H-pyrazol-3-yl)-3,4-dihydroquinazolin-2-yl)(cyclobutyl)methyl)amino)pyrimidine-5-carbonitrile] | – | – | – | – | 4 | 4 | 7800 |
| N#Cc1c(N)nc(N)nc1N[C@H](c1nc2cccc(C(F)F)c2c(=O)n1-c1cc[nH]n1)C1CCC1 [Compound 131, (S)-2,4-diamino-6-((cyclobutyl(5-(difluoromethyl)-4-oxo-3-(1H-pyrazol-3-yl)-3,4-dihydroquinazolin-2-yl)methyl)amino)pyrimidine-5-carbonitrile] | – | – | – | – | 2 | 4 | 2000 |
| Nc1nc(N)c(Cl)c(N[C@H](c2nc3cccc(C(F)F)c3c(=O)n2-c2cc[nH]n2)C2CCC2)n1 [Compound 132, (S)-2-(cyclobutyl((2,6-diamino-5-chloropyrimidin-4-yl)amino)methyl)-5-(difluoromethyl)-3-(1H-pyrazol-3-yl)quinazolin-4(3H)-one] | – | – | – | – | 75 | 42 | > 10000 |
| N#Cc1c(N)nc(N)nc1N[C@H](c1nc2c(C(F)(F)F)cccc2c(=O)n1-c1cc[nH]n1)C1CC1 [Compound 133, (S)-2,4-diamino-6-((cyclopropyl(4-oxo-3-(1H-pyrazol-3-yl)-8-(trifluoromethyl)-3,4-dihydroquinazolin-2-yl)methyl)amino)pyrimidine-5-carbonitrile] | – | – | – | – | 2 | 3 | 474 |
| Nc1nc(N)c(Cl)c(N[C@H](c2nc3c(C(F)(F)F)cccc3c(=O)n2-c2cc[nH]n2)C2CC2)n1 [Compound 134, (S)-2-(cyclopropyl((2,6-diamino-5-chloropyrimidin-4-yl)amino)methyl)-3-(1H-pyrazol-3-yl)-8-(trifluoromethyl)quinazolin-4(3H)-one] | – | – | – | – | 37 | 24 | 9300 |

Next, values leading:

| IC50 (PI3Kβ; [1]) [nM] | IC50 (PI3Kδ; [1]) [nM] | IC50 (PI3Kγ; [1]) [nM] | IC50 (PI3Kγ) [nM] | IC50 (PI3Kβ; Table 2a, same assay) [nM] | IC50 (PI3Kδ; Table 2a, same assay) [nM] | IC50 (PI3Kγ; Table 2a, same assay) [nM] | Compound |
| --- | --- | --- | --- | --- | --- | --- | --- |
| 25 | 9 | 4900 | – | – | – | – | Nc1nc(N)c(Cl)c(N[C@@H](c2ccccc2)c2nc3cccc(Cl)c3c(=O)n2-c2cc[nH]n2)n1 [Compound 109, (S)-5-chloro-2-(((2,6-diamino-5-chloropyrimidin-4-yl)amino)(phenyl)methyl)-3-(1H-pyrazol-3-yl)quinazolin-4(3h)-one] |
| 17 | 4 | 2200 | – | – | – | – | CC[C@H](Nc1nc(N)nc(N)c1C#N)c1nc2ccc(F)cc2c(=O)n1-c1cc[nH]n1 [Compound 112, (S)-2,4-diamino-6-((1-(6-fluoro-4-oxo-3-(1H-pyrazol-3-yl)-3,4-dihydroquinazolin-2-yl)propyl)amino)pyrimidine-5-carbonitrile] |
| 2 | 1 | 980 | – | – | – | – | N#Cc1c(N)nc(N)nc1N[C@H](c1nc2ccc(F)cc2c(=O)n1-c1cc[nH]n1)C1CC1 [Compound 113, (S)-2,4-diamino-6-((cyclopropyl(6-fluoro-4-oxo-3-(1H-pyrazol-3-yl)-3,4-dihydroquinazolin-2-yl)methyl)amino)pyrimidine-5-carbonitrile] |
| 510 | 260 | – | > 10000 | – | – | – | CC[C@H](NC(=O)c1nccnc1N)c1nc2c(Cl)ccc(Cl)c2c(=O)n1-c1cc[nH]n1 [Compound 118, (S)-3-amino-N-(1-(5,8-dichloro-4-oxo-3-(1H-pyrazol-3-yl)-3,4-dihydroquinazolin-2-yl)propyl)pyrazine-2-carboxamide] |
| – | – | – | – | 2 | 1 | 340 | C[C@H](Nc1nc(N)nc(N)c1C#N)c1nc2c(C(F)(F)F)cccc2c(=O)n1-c1cc[nH]n1 [Compound 135, (S)-2,4-diamino-6-((1-(4-oxo-3-(1H-pyrazol-3-yl)-8-(trifluoromethyl)-3,4-dihydroquinazolin-2-yl)ethyl)amino)pyrimidine-5-carbonitrile] |
| – | – | – | – | 9 | 11 | 5500 | C[C@H](Nc1nc(N)nc(N)c1Cl)c1nc2c(C(F)(F)F)cccc2c(=O)n1-c1cc[nH]n1 [Compound 136, (S)-2-(1-((2,6-diamino-5-chloropyrimidin-4-yl)amino)ethyl)-3-(1H-pyrazol-3-yl)-8-(trifluoromethyl)quinazolin-4(3H)-one] |
| – | – | – | – | 33 | 21 | > 10000 | C[C@H](Nc1nc(N)nc(N)c1C#N)c1nc2cc(Cl)ccc2c(=O)n1-c1cc[nH]n1 [Compound 139] |
| – | – | – | – | 2 | 5 | 6080 | C[C@H](Nc1nc(N)nc(N)c1C#N)c1nc2c(C(F)F)cc(F)cc2c(=O)n1-c1cc[nH]n1 [Compound 140] |
